Tested on: advanced AD patients
Experiment: Compassionate use study: cognitive function and behavior (MMSE, ADL-siv)
Format: in vivo, human
Experimental: FIG. 1 illustrates, inter alia, the level of PKCε in the blood of a human subject receiving 25 μg/m^2 of bryostatin as a single weekly dose for three consecutive weeks followed by cessation of dosing for one week and then two additional weeks of dosing at 25 μg/m^2.
FIG. 1 illustrates early results of a compassionate use (CU) study involving human advanced AD patients. […] The administration comprised three consecutive weeks of dosing followed by cessation for one week and then two additional weeks of dosing. Standard psychometric tests were used to measure cognitive functions and behaviors. The study also evaluated the relationship between the level of bryostatin's target, PKC epsilon, in the blood and the cognitive measurements.
Observed improvements included restored speech and word recognition, restored swallowing, lowered or prevented hallucinations, and improved complex motor functions. […] For example, the observed behavioral improvements included restoration of speech and word recognition, restoration of swallowing, disappearance of hallucinations, return of complex motor activity, including swimming, billiards, conversational interactions, and orientation in time and space.
The decline closely tracked the decline in PCK-ε levels, as illustrated in FIG. 1. The observed decline was due to a well-known phenomenon that follows PKC activation called “downregulation”. Sustained clinical improvements in these patients with advanced AD were mitigated by the downregulation of the bryostatin target, PKC-ε. From these preliminary observations the inventors hypothesized that an intermittent dosing regimen of bryostatin was more suitable for maintaining cognitive benefits in AD patients.

[1] = advanced AD patients, weekly dose of 25 μg/m^2, three consecutive weeks

CCC/C=C/C=C/C(=O)O[C@H]1/C(=C/C(=O)OC)C[C@H]2C[C@H]([C@@H](C)O)OC(=O)C[C@H](O)C[C@@H]3C[C@H](OC(C)=O)C(C)(C)[C@](O)(C[C@@H]4C/C(=C/C(=O)OC)C[C@H](/C=C/C(C)(C)[C@]1(O)O2)O4)O3 [Bryostatin-1]
maintenance of cognitive benefits (additional bryostatin dosing in weeks 5, 6 and 8-13): failed to maintain the observed cognitive benefits | Activities of Daily Living-Severe Impairment Version (ADL-siv) [1]: improvements | Mini-Mental State Examination (MMSE) score [1]: improvements
